Measurements: patent US20230265405A1, “ENGINEERED NUCLEASES AND METHODS OF USE THEREOF” (Massachusetts Institute of Technology, priority 2022, published 2023)
Read-outs that look alike come from different tables or passages of the source.

Tests used:
Assay type in all cases: cell-based, human
[1] = system: GFP transgene; assay: Prime editing GFP to BFP conversion with pegRNA and nicking gRNA, flow cytometry
Text: (§1) We tested these engineered variants by applying prime editing with a pegRNA and nicking gRNA to convert a GFP transgene to BFP, similar to the HDR assay.
(§2) We next examined whether vPE produces precise editing by again applying prime editing to convert a GFP transgene to BFP. […] As prime editors can produce indels without the prime edit, with the prime edit, or with the prime edit and pegRNA scaffold incorporation (Chen et al. Cell 184, 5635-5652.e29 (2021)), we further determined how these different indel types were affected.
Flow cytometry analysis was performed on an LSR Fortessa analyzer and data was collected using FACSDiva (BD Biosciences). Cells were first gated comparing SSC-A and FSC-A, then SSC-H and SSC-W, then FSC-H and FSC-W parameters to select for single cells. To assess editing frequencies, cells were gated for GFP (488 nm laser excitation, 530/30 nm filter detection) and BFP (405 nm laser excitation, 450/50 nm filter detection). To profile cell cycle stage, cells were gated for propidium iodide (561 nm laser excitation, 610/20 nm filter detection) and Alexa Fluor 647 (640 nm laser excitation, 670/30 nm filter detection). Flow cytometry data were analyzed using FlowJo (FlowJo).

[2] = system: KRAS locus in HEK293T cells; assay: Prime editor variant screen with pegRNA and nicking gRNA (PE3), deep sequencing
Experimental: To measure precise editing and indel frequencies for these mutants, we combined them with a pegRNA and nicking gRNA (double-nicking prime editing, or PE3) that produces a small sequence replacement at the KRAS locus in HEK293T cells by prime editing and analyzed alterations using deep sequencing of the amplified locus.
as §1
Cells were seeded in the maintenance medium without Pen-Strep into 24-well plates at 100,000 cells/well or 48-well plates at 50,000 cells/well. […] Transfections of HEK293T with prime editing vectors were carried out 24 hrs after seeding using 475 ng PE expression vector, 114 ng pegRNA expression vector, and 144 ng nicking gRNA expression vector (for PE3) formulated with 1.47-1.83 μL (equal volume/DNA) Lipofectamine 2000 at a total volume of 58.9-73.3 μL (equal DNA concentration) in OptiMEM I (ThermoFisher) per well for 24-well plates, or half these volumes for 48-well plates. For sequencing assays, genomic DNA was extracted 72 hrs after transfection using QuickExtract (Epicentre). For flow cytometry assays, cells were transferred to 6-well plates 72 hrs after transfection, split 7 days after transfection, and harvested 10 days after transfection in PBS with 5% FBS (ThermoFisher). […]

[3] = system: several loci in HEK293T cells; assay: Prime editing with pegRNAs and nicking gRNAs (double-nicking, PE3) at several loci, deep sequencing; details: for precise editing frequencies (mean): mean across several loci; for precise editing frequencies: range across several loci
Experimental: We compared PEmax and PE for creating small edits at the EMX1, GFP, KRAS, and MYC loci in HEK293T cells.
as §2
(§3) Cells were seeded in the maintenance medium without Pen-Strep into 24-well plates at 100,000 cells/well or 48-well plates at 50,000 cells/well. […] Transfections of HEK293T with prime editing vectors were carried out 24 hrs after seeding using 475 ng PE expression vector, 114 ng pegRNA expression vector, and 144 ng nicking gRNA expression vector (for PE3) formulated with 1.47-1.83 μL (equal volume/DNA) Lipofectamine 2000 at a total volume of 58.9-73.3 μL (equal DNA concentration) in OptiMEM I (ThermoFisher) per well for 24-well plates, or half these volumes for 48-well plates. For sequencing assays, genomic DNA was extracted 72 hrs after transfection using QuickExtract (Epicentre). For flow cytometry assays, cells were transferred to 6-well plates 72 hrs after transfection, split 7 days after transfection, and harvested 10 days after transfection in PBS with 5% FBS (ThermoFisher). Repair templates, listed in Supplementary Table 4, were synthesized by IDT.
(§4) The targeted loci were amplified from extracted genomic DNA by PCR using Herculase II polymerase (Agilent). The PCR primers included Illumina sequencing handles as well as replicate-specific barcodes. These PCR products were then tagged with sample-specific barcodes and sequenced on an Illumina MiSeq. Primers, listed in Supplementary Table 5, were synthesized by IDT.
(§5) To measure editing outcomes, the high-throughput sequencing data were analyzed using CRISPResso2 25. Total editing rates were quantified as the fraction of edited reads out of total sequencing reads. Indel rates were quantified as the fraction of reads containing indels out of total sequencing reads. Precise editing rates were quantified as the fraction of reads containing a perfect match to the expected edit out of total sequencing reads. Frequencies of specific indel sizes were quantified as the fraction of reads containing these sizes out of all edited reads. Depletion of specific indel sizes by templated repair was quantified as the fractional reduction in the frequency of that indel size, comparing frequencies for when a template was present versus absent. Mean indel sizes were calculated as the mean of the absolute values of indel sizes weighted by their indel fractions.

[4] = system: several loci in HEK293T cells; assay: Prime editing with pegRNAs without nicking gRNAs (single-nicking, PE2) at several loci, deep sequencing; details: for indel frequencies: all loci; for precise editing frequencies (mean): mean across several loci; for precise editing frequencies: range across several loci
Experimental: Considering this broad suppression of all indel types, we also studied whether vPE reduced indel frequency at several loci in HEK293T cells using pegRNAs without nicking gRNAs (single-nicking prime editing, or PE2).
as §3, §4, §5

[5] = vPE versus PE, range across loci

Substance	indels and precise editing, GFP to BFP conversion [1]	indels and precise editing, GFP to BFP conversion ([1]; listed as K848A-H982A)	precision, rank among PE variants [2]	precise editing frequency and indel frequency relative to PE ([2]; dual-mutation variants, KRAS locus)	indels resulting from prime editing ([3]; all loci)	frequencies of each indel type ([3]; indels without prime edit, with prime edit, with pegRNA scaffold incorporation)	precise editing frequencies (mean) [3]	precise editing frequencies [3]	suppression of indel frequency (mean) ([3]; vPE versus PE, mean)	suppression of indel frequency [3, 5]	indel types [4]	indel frequencies [4]	precise editing frequencies (mean) [4]	precise editing frequencies [4]	suppression of indel frequency (mean) ([4]; vPE versus PE, mean)	suppression of indel frequency [4, 5]
vPE: PE prime editor with K848A-H982A in the Cas9 nickase, SEQ ID NO: 294	efficient precise gene conversion with limited indels	nearly eliminated indels while promoting precise editing	most precise variant	increased precise editing frequency and reduced indel frequency	nearly eliminated indels	decreasing the frequencies of each indel type	82.5%	57.7-97.4%	4.7 fold	2.0- to 13.0 fold	reductions in all indel types	lower indel frequencies	90.5%	84.2-98.4%	1.7 fold	1.1- to 2.5 fold
PE: Prime editor: variant of PEmax with the R221K and N394K mutations reverted; SEQ ID NO: 293 (nucleic acid 286)							49.1%	14.7-69.8%				fairly low indel frequencies	82.7%	72.3-98.2%		
